In patent US20050222122A1, “Statin therapy for enhancing cognitive maintenance” (priority 2002, published 2005):

Tests used:
serum β-amyloid = settings: patients with high low-density lipoprotein cholesterol; lovastatin 40 or 60 mg; cited from earlier work
[1] = system: patients with Alzheimer's disease; assay: Change in ADAS-cog/11 in combined double-blind, placebo-controlled galantamine clinical trials (5 to 6 months); format: in vivo, human; settings: combined trial data, galantamine 24 mg daily, controls for study and AD severity
Description: The objective was to evaluate the effect of statins on cognitive maintenance in patients with Alzheimer's disease during 5- and 6-month randomized clinical trials of galantamine.
Data were combined from 3 double-blind, placebo-controlled clinical trials limited to patients treated with galantamine 24 mg daily or placebo
Patients were categorized based on galantamine status and any statin use.
Changes in the Alzheimer's Disease Assessment Scale-cognitive subscale with standard 11 items (ADAS-cog/11) using last observation carried forward (LOCF) were assessed
Comparisons between patient subgroups were made controlling for relevant confounding factors.

| SMILES | serum β-amyloid (serum β-amyloid) | ADAS-Cog change score, LS Means (SE) ([1]; Intent-to-treat analysis (LOCF)) | ADAS-Cog change score, LS Means (SE) ([1]; Intent-to-treat analysis (LOCF), listed as GAL-only) | ADAS-Cog change score, LS Means (SE) ([1]; Observed cases) |
| --- | --- | --- | --- | --- |
| CC[C@H](C)C(=O)O[C@H]1C[C@@H](C)C=C2C=C[C@H](C)[C@H](CC[C@@H]3C[C@@H](O)CC(=O)O3)[C@H]21 [lovastatin] | decreased serum β-amyloid | – | – | – |
| COc1ccc2c3c1O[C@H]1C[C@@H](O)C=C[C@@]31CCN(C)C2 [GAL 24 only, (4aS,6R,8aS)-4a, 5,9,10,11,12-hexahydro-3-methoxy-1 1-methyl-6H-benzofuro[3a,3,2-ef][2]benzazepin-6-ol] | – | −0.88 (0.25) | −0.88 | −0.61 (0.28) |
